Test results as given in publication PMC12169663, “Deciphering the Tumor Uptake of Heterobivalent (SST2/Albumin) [^64Cu]Cu-NODAGA-cLAB-TATEs” (Journal of Medicinal Chemistry, 2025).
Like-named read-outs stand apart in the source and are kept apart here.

How the values were obtained:
[1] = n-Octanol/PBS distribution coefficient (log D7.4)
Procedure: The log D7.4 values of the ^64Cu-labeled peptides were determined with the octanol partitioning method.
The determination of the log D7.4 value was done in triplicate as previously described. , Briefly, a sample of the radioligand was added to the 1:1 mixture of PBS/n-octanol. The radioactivity in a defined volume of each layer was measured (ISOMED 2100). The distribution coefficient was expressed as the logarithm of the ratio of counts per minute (cpm) measured in the n-octanol phase to the cpm measured in the PBS phase.

[2] = system: MPC tumor-bearing NMRI-nu/nu mice; assay: Small-animal PET imaging in subcutaneous MPC tumor allograft model; settings: PET, i.v., 7–10 MBq/animal
Procedure: (§2) The biodistribution of [ ^ 64 Cu]­Cu-NODAGA-cLAB­(5/6)-TATE, [ ^ 64 Cu]­Cu-NODAGA-cLAB4- scr TATE, and [ ^ 64 Cu]­Cu-DOTA-EB-TATE was assessed in a subcutaneous MPC tumor allograft model via small-animal PET imaging (Figure A–D). The time-activity curves (TACs) for tumor, kidneys, and heart are shown in Figure A–D (for TACs of muscle and liver, see Figure S6) and the calculated areas under curves (AUC0–48h) and tumor-to-tissue ratios are graphically summarized in Figure E,F, respectively.
(§3) (A–D) Time-activity curves (SUV, decay-corrected, as a function of time up to 48 h) obtained by PET acquisition are depicted (0–2 h in dynamic mode and time points 5, 24, and 48 h p.i.; the x-axes are segmented accordingly). Data shown are mean values (±SD) of a group of MPC tumor-bearing NMRI-nu/nu mice (n = 2, but for cLAB6-TATE n = 4). […] (E) Calculated AUC0–48h values. Data shown are mean values (±SD). (F) Tumor/organ ratios based in the AUC0–48h values.
(§4) A number of 4 × 10^6 MPC cells were resuspended in 40 μL of Dulbecco’s phosphate-buffered saline and injected subcutaneously into the shoulder of 7–10-week-old female nude mice (Rj:NMRI-Foxn1^nu/nu, Janvier Laboratories, Le Genest-Saint-Isle, France). General anesthesia was induced and maintained with inhalation of 10% (v/v) desflurane in 30% oxygen/air (v/v). Tumor growth was monitored using caliper measurements. Animals were sacrificed using CO2 inhalation and cervical dislocation. When diameters of MPC tumors reached 8 ± 3 mm (volumes of 65–282 mm^3), small-animal positron emission tomography (PET) was performed using the nanoScan PET/CT (Mediso Medical Imaging Systems, Budapest, Hungary) and Si78 PET/CT (BRUKER, Billerica, MA) instruments. Scanners were cross-calibrated using a syringe source containing 10 MBq of [^64Cu]­CuCl2 diluted in 2 mL of 0.01 M HCl. Each mouse (n = 2) received between 7 and 10 MBq of the respective radioligand (A m = 40 GBq/μmoL) delivered in 0.154 M NaCl via intravenous injection through a tail vein catheter within the initial 30 s after scan start. […] Standardized uptake values (SUV = [MBq detected activity/mL tissue]/[MBq injected activity/g body weight]) were determined in defined volumes of interest (VOIs) and reported as VOI-averaged SUVmean ± range [min–max]. Assuming a density of 1 g/mL for body tissues, the SUVs become dimensionless.

[3] = as above; settings: female, NMRI-nu/nu (Rj:NMRI-Foxn1nu/nu), mouse, tumor, iv, total radioactivity
Procedure: as §2, §3, §4

[4] = Plasma stability assay, mouse plasma; type: in vitro ADME
Description: Previously, we discovered that the ^64Cu-labeled NODAGA-cLAB-TATEs with a primary amide functionality within the albumin-binding moiety are subject to a metabolic transformation in mouse plasma. In fact, the primary amide is slowly hydrolyzed to the carboxylic acid, which turned out to be catalyzed by plasma carboxylesterases as proven by blocking this transformation in the presence of bis-para-nitrophenylphosphate. […] As this transformation entails also an increase in the binding affinity to albumin, there might be effects on the biodistribution in mice, in particular the blood circulation time. To investigate this, NODAGA-cLAB6-TATE was designed, with cLAB6 (N3Bz-D-Lys(MPB)-NH2) representing the D-configured pendant of cLAB4 (N3Bz-L-Lys(MPB)-NH2). […] However, the apparent half-lives for both compounds (≈13 and >24 h) are longer compared to the half-lives previously determined for [ ^ 64 Cu]-Cu-NODAGA-cLAB3-TATE and [ ^ 64 Cu]-Cu-NODAGA-cLAB4-TATE (≈6 and ≈3 h, respectively). For better comparability, the stability of [ ^ 64 Cu]-Cu-NODAGA-cLAB4-TATE was again examined with the same mouse plasma batch used for [ ^ 64 Cu]-Cu-NODAGA-cLAB5-TATE and [ ^ 64 Cu]-Cu-NODAGA-cLAB4- scr TATE. […] Therefore, the discrepancy with our previously reported stability data in mouse plasma might result from differences in the activity of plasma carboxylesterases in the obtained mouse plasma. However, the rate of amide hydrolysis is indeed lower for [ ^ 64 Cu]-Cu-NODAGA-cLAB4- scr TATE, independent of the mouse plasma batch, which might indicate that the actual amino acid sequence in these peptides affects the recognition by the plasma carboxylesterases.
2 Stability of the ^64Cu-labeled TATE derivatives in mouse plasma. (A) Radio-HPLC chromatograms of [^64Cu]-Cu-NODAGA-cLAB5-TATE (red), [^64Cu]-Cu-NODAGA-cLAB6-TATE (green), and [^64Cu]-Cu-NODAGA-cLAB- scr TATE (blue) after ^64Cu-labeling and incubation in mouse plasma for 24 h show the transformation of [^64Cu]-Cu-NODAGA-cLAB5-TATE and [^64Cu]-Cu-NODAGA-cLAB4- scr TATE into a metabolite of higher retention time (see the Discussion for explanation). (B) Plot of residual intact radioligands upon incubation with mouse plasma including nonlinear regression (black line) according to one-phase decay for [^64Cu]-Cu-NODAGA-cLAB5-TATE (red circles). The dotted lines represent fractions of 0.5 and 0.9. Data shown are mean values (±SD) from 1 to 3 experiments (each experiment was performed in single execution). […]
(§1) Plasma stability of the radioligands was done as previously described for NODAGA-cLAB-TATE and NODAGA-NES-TATEs. , Briefly, an aliquot of the radioligand was added to plasma and stability was assessed at different time points by withdrawing an aliquot, followed by protein precipitation and analysis by radio-HPLC.

MPC cells = assay: Cell binding and uptake (internalization) in MPC cells; type: cell-based, mouse
Procedure: Furthermore, the receptor-mediated endocytosis (referred to as internalization) of the novel compounds was assessed. The values for the internalized fraction (or “acid wash” resistant fraction) were >50% (Figure S5), which might indicate a similar pharmacological behavior of these ligands upon binding to SST2 as the parent ligand TATE.
Cell binding and uptake were measured as previously described. , MPC cells were seeded into collagen-coated 24-well microplates and cultivated for 4 days. All washing steps were performed using PBS containing 0.9 mM CaCl2 and 0.5 mM MgCl2. Total radioligand uptake was measured after incubation with the radioligand (A m = 30 GBq/μmol) at a final concentration of 20 nM in RPMI 1640 medium with GlutaMAX supplement (Thermo Fisher Scientific) for 1 h at 37 and 4 °C. Nonspecific binding was determined in the presence of 20 μM Acetyl-TATE. The uptake fraction was measured after acid wash of cell surface-bound radioligand with wash buffer containing 0.05 M glycine, pH 2.8, for 5 min. The activity of cell homogenates was measured using the γ counter Wizard (PerkinElmer). The protein content of cell homogenates was measured as described above.
Figure S5: Cell binding data
Data shown in A and B are mean values (±SD) of one experiment (NODAGA-cLAB(5/6)- TATE and NODAGA-cLAB4-scrTATE) or 3 experiments (±SEM, DOTA-EB-TATE), which were performed in sextuplicate. In C, the amount of specific “internalized” (acid resistant) radioligand (red bars in A, mean values) is expressed as percentage of specific total -bound radioligand (blue bars in A, mean values). The difference to 100% was assigned to “surface - bound” radioligand. For a better overview, the compound names were abbreviated. […]
specific binding of radioligand
Incubation at 37°C for 1 h
(% dose/mg of protein) Washing with
Incubation at 4°C for 1 h […]
(1 picture or pasted object on this page, not shown here)

[5] = Plasma stability assay, human plasma; type: in vitro ADME; settings: 37 °C, up to 24 h, single experiment, read-out: t1/2 (plasma), human
Description: Previously, we discovered that the ^64Cu-labeled NODAGA-cLAB-TATEs with a primary amide functionality within the albumin-binding moiety are subject to a metabolic transformation in mouse plasma. In fact, the primary amide is slowly hydrolyzed to the carboxylic acid, which turned out to be catalyzed by plasma carboxylesterases as proven by blocking this transformation in the presence of bis-para-nitrophenylphosphate. […] As this transformation entails also an increase in the binding affinity to albumin, there might be effects on the biodistribution in mice, in particular the blood circulation time. To investigate this, NODAGA-cLAB6-TATE was designed, with cLAB6 (N3Bz-D-Lys(MPB)-NH2) representing the D-configured pendant of cLAB4 (N3Bz-L-Lys(MPB)-NH2). […] However, the apparent half-lives for both compounds (≈13 and >24 h) are longer compared to the half-lives previously determined for [ ^ 64 Cu]-Cu-NODAGA-cLAB3-TATE and [ ^ 64 Cu]-Cu-NODAGA-cLAB4-TATE (≈6 and ≈3 h, respectively). […]
as §1

[6] = biological target: human serum albumin (HSA) (Homo sapiens, UniProt P02768); assay: Radiometric ultrafiltration assay for binding to HSA
Procedure: The ultrafiltration assay used to quantify the binding of the ^64Cu-labeled peptides to HSA was performed as previously described for NODAGA-cLAB-TATEs. , Briefly, a constant activity amount of the radioligands (10–15 MBq) were mixed with different HSA concentrations (200 nM–1.4 mM). Aliquots were loaded into the ultrafiltration devices (4104 centrifugal filter units by Millipore; 30 000 Da nominal molecular weight limit, methylcellulose micropartition membranes) and centrifuged. After centrifugation, aliquots from the top and bottom fractions were measured in a γ-counter (PerkinElmer, Wizard^2 2480 automatic gamma counter). The retained fraction was calculated as a quotient of these measurements. The dissociation constant, K d, was calculated using the Morrison equation.

[7] = set-up: method as in not given; settings: previously characterized; ref not given; cited from earlier work
HSA [8] = biological target: T1, HSA (Homo sapiens, UniProt P02768); assay: Kd[HSA] from SST2 saturation binding in presence of HSA, nonlinear regression with model of Blakeley et al.
Description: Blakeley et al. developed a mathematical model that includes radioligand, protein (herein HSA), and target receptor (herein SST2) to derive the K d[HSA] value of the radioligand from saturation binding experiments to the target receptor in the presence of HSA. The authors specified an explicit mathematical solution for their proposed cubic equation and provided this solution also in a practical format for GraphPad Prism, which allows the analysis of experimental data but also simulations.

[9] = system: MPC tumor-bearing NMRI-nu/nu mice; set-up: method as in not given; settings: previous study of the authors, ref not given, cited from earlier work
HSA [10] = biological target: T1, HSA; assay: Schild analysis of SST2 binding in the presence of HSA
Procedure: 5 Schild analysis of SST2 binding in the presence of HAS. […] Simulation was performed in GraphPad Prism (version 10.2.3) according to the solution in PRISM language provided by Blakeley et al. for their derived cubic equation. (B, C) Exemplary saturation binding curves of [^64Cu]-Cu-NODAGA-cLAB2-TATE (B) and [^64Cu]-Cu-NODAGA-TATE (C) to intact MPC cells in the presence of increasing concentrations of HSA. For each curve, data shown are mean values (±SD) of one experiment, which was performed in triplicate. […] This plot was analyzed by linear regression. The simulation data provide a slope of unity, while for [^64Cu]-Cu-NODAGA-cLAB2-TATE, a slope of 0.69 (CI of 95%: 0.48–0.90, R ^2 = 0.990) was obtained.
Analyzing the experimental data by nonlinear regression according to the model of Blakeley et al. with fixed values for [HSA], [SST2], and K d[SST2], provided the K d[HSA] values (Table ). […]
For Schild analysis, the ratio (similar to the agonist dose ratio, DR) between the apparent K d value in the presence of each HSA concentration and the K d value in the absence of HSA was calculated. Then, the logarithm of these DR minus 1 (log(DR-1)) was calculated and plotted against the log of the concentration of HSA. This plot was analyzed by linear regression with the x-intercept equals to the log(K d) value of the radioligand for HSA.

[11] = 1–100 μM HSA, read-out: Kd[HSA] derived from saturation binding, range over the HSA concentrations
[12] = [HSA] 20 μM, read-out: Kd[HSA] derived from saturation binding
[13] = [HSA] 40 μM, read-out: Kd[HSA] derived from saturation binding
[14] = [HSA] 100 μM, read-out: Kd[HSA] derived from saturation binding

Chain of human serum albumin (HSA) (P02768 25-609): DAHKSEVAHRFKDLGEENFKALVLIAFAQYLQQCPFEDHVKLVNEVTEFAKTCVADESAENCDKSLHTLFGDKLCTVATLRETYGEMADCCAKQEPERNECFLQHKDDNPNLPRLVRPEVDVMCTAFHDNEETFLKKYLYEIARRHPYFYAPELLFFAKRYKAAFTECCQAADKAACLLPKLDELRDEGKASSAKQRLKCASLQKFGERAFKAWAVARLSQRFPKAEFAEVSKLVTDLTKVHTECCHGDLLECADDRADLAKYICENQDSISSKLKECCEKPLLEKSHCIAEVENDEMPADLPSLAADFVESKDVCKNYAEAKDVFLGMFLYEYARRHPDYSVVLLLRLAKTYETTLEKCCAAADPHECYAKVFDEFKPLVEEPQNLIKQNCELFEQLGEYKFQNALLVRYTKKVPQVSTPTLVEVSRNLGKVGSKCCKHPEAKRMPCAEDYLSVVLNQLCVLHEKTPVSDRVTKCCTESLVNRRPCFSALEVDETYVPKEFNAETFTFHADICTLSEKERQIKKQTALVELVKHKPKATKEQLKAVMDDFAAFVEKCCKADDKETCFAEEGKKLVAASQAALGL
T1 sequence (P02768 25-609): as above

Work on `C[C@@H](O)[C@H](NC(=O)[C@@H]1CSSC[C@H](NC(=O)[C@@H](Cc2ccccc2)NC(=O)COCCOCCNC(=O)[C@H](Cc2cn(-c3ccc(C(=O)N[C@@H](CCCCNC(=O)CCCc4ccc(F)cc4)C(N)=O)cc3)nn2)NC(=O)CC[C@H](C(=O)O)N2CCN(CC(=O)O)CCN(CC(=O)O)CC2)C(=O)N[C@@H](Cc2ccc(O)cc2)C(=O)N[C@H](Cc2c[nH]c3ccccc23)C(=O)N[C@@H](CCCCN)C(=O)N[C@@H]([C@@H](C)O)C(=O)N1)C(=O)O` [[64Cu]Cu-NODAGA-cLAB5-TATE, metal not drawn] yielded a logD [1] of -2.27, an AUC0-48h heart [2] of 5.98 SUVmean*h and an AUC0-48h kidney [2] of 32.36 SUVmean*h. It also gave an AUC0-48h liver [2] of 22.25 SUVmean*h, an AUC0-48h tumor [2] of 148 SUVmean*h and an AUC0-48h tumor ([2]; listed as cLAB5) of 148.10 SUVmean*h. For the same molecule, the SUV [3] was 8.9 SUV, the SUV at 2 h [3] was 7.9 SUV and the SUV at 4 h [3] was 4.9 SUV. The SUV at 24 h [3] was 2.3 SUV, the half-life ([4]; 37 °C, up to 24 h, single experiment, read-out: t1/2 (plasma), mouse) was about 13 h and the “hydrolysis of the primary amide in mouse plasma” value ([4]; 24 h, radio-HPLC) was “hydrolyzed”. The “specific binding of radioligand” value (MPC cells; incubation at 4 °C for 1 h, washing with PBS pH 7.4, 20 nM) was 0.94 % dose/mg of protein, the “specific binding of radioligand” value (MPC cells; incubation at 4 °C for 1 h, washing with glycine buffer pH 2.8, 20 nM) was 0.30 % dose/mg of protein and the “specific binding of radioligand” value (MPC cells; incubation at 37 °C for 1 h, washing with PBS pH 7.4 (total bound), 20 nM) was 5.74 %dose/mg of protein. For the same molecule, the “specific binding of radioligand” value (MPC cells; incubation at 37 °C for 1 h, washing with glycine buffer pH 2.8 (acid resistant), 20 nM) was 3.34 %dose/mg of protein, the half-life [5] was over 24 h and the Kd [6] was 440 µM.
For `C[C@@H](O)[C@H](NC(=O)[C@@H]1CSSC[C@H](NC(=O)[C@@H](Cc2ccccc2)NC(=O)CC[C@H](C(=O)O)N2CCN(CC(=O)O)CCN(CC(=O)O)CC2)C(=O)N[C@@H](Cc2ccc(O)cc2)C(=O)N[C@H](Cc2c[nH]c3ccccc23)C(=O)N[C@@H](CCCCN)C(=O)N[C@@H]([C@@H](C)O)C(=O)N1)C(=O)O` [[64Cu]Cu-NODAGA-TATE, metal not drawn], the “log D7.4” value [7] is listed as −3.43, the Kd (HSA [8]; [11]) is listed as 3.9 to 108 µM and the Kd (HSA [8]; [HSA] 1 μM, read-out: Kd[HSA] derived from saturation binding) is listed as 5.63 µM. The Kd (HSA [8]; [HSA] 5 μM, read-out: Kd[HSA] derived from saturation binding) was 4.02 µM, the Kd (HSA [8]; [12]) was 3.89 µM and the Kd (HSA [8]; [13]) was 16.7 µM. The Kd (HSA [8]; [14]) was 108 µM.
For `C[C@@H](O)[C@H](NC(=O)[C@@H]1CSSC[C@H](NC(=O)[C@@H](Cc2ccccc2)NC(=O)COCCOCCNC(=O)[C@H](Cc2cn(-c3ccc(C(=O)N[C@@H](CCCCNC(=O)CCCc4ccc(I)cc4)C(=O)O)cc3)nn2)NC(=O)CC[C@H](C(=O)O)N2CCN(CC(=O)O)CCN(CC(=O)O)CC2)C(=O)N[C@@H](Cc2ccc(O)cc2)C(=O)N[C@H](Cc2c[nH]c3ccccc23)C(=O)N[C@@H](CCCCN)C(=O)N[C@@H]([C@@H](C)O)C(=O)N1)C(=O)O` [[64Cu]Cu-NODAGA-cLAB2-TATE, metal not drawn], the “tumor SUVmean” value ([9]; 24 h p.i.) is given as 3.1, the “tumor SUVmean” value ([9]; 48 h p.i.) is given as 2.4 and the “AUC0–48h[tumor]” value ([9]; same MPC model) is given as 123 SUVmean*h. The Kd (HSA [8]; [11]) was 2.6 to 6.1 µM, the Kd (HSA [8]; [12]) was 3.06 µM and the Kd (HSA [8]; [13]) was 2.59 µM. The Kd (HSA [8]; [14]) was 6.12 µM, the “slope of Schild plot” value (HSA [10]; linear regression, CI of 95%: 0.48–0.90) was 0.69 and the Kd (HSA [10]; x-intercept of Schild plot, 5–100 μM HSA) was 1.8 µM. The fu ([6]; 1 μM HSA, fu=Kd/(Bmax+Kd)) was 0.64, the fu ([6]; 5 μM HSA) was 0.26 and the fu ([6]; 20 μM HSA) was 0.08. It also gave a fu ([6]; 40 μM HSA) of 0.04 and a fu ([6]; 100 μM HSA) of 0.02.
